Source: US20050228016A1, “TETRAHYDROQUINOLINES FOR MODULATING THE EXPRESSION OF EXOGENOUS GENES VIA AN ECDYSONE RECEPTOR COMPLEX” (priority 2002, published 2005)

Target: T1, Gal4DBD/AaEcR (DEF) (Aedes aegypti, UniProt P49880)
T1 construct: The wildtype D, E, and F domains from mosquito Aedes aegypti EcR; expressed in transfected cells; host or cells: 3T3 cells
Assay: cell-based
Type: cell-based
Settings: for Fold Induction Average, AA_3T3V1 Assay 33 μM: 3T3 cells, 48 h, average of two wells
Experimental: 3T3 cells were trypsinized and plated at 2.5×10^3 cells/well on a 96-well plate. After incubation for 24 h at 37° C. under 5% CO2, cells were transfected with the Gal4DBD/AaEcR (DEF) gene expression cassette and the reporter plasmid, pFRLuc, containing a 5× GAL4 response element and the firefly luciferase gene in serum free media using Superfect (Qiagen). After transfection for 4 h at 37° C., the cells were treated with ligand in serum media. […] Single dose testing was performed at 33 μM.

T1 sequence (P28704 286-520 A311G/G315S/G445S/I449V): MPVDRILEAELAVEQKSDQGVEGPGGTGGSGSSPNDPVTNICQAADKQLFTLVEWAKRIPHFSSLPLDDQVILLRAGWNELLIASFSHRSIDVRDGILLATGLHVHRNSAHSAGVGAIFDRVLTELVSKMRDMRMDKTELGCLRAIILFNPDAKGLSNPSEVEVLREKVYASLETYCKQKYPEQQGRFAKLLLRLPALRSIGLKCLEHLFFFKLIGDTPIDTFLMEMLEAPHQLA
T1 sequence (P49880 405-776): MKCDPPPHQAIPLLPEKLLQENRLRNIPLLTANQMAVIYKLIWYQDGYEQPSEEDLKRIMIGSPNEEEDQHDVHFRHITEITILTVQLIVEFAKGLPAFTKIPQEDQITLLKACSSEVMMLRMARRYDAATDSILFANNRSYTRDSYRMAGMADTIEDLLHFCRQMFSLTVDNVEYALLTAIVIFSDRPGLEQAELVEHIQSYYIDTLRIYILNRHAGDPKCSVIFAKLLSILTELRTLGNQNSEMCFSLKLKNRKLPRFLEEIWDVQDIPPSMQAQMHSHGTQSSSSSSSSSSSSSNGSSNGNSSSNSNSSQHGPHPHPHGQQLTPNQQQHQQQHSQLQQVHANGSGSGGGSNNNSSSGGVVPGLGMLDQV

Cc1ccc(C(=O)N2c3ccccc3C(Nc3cccc(C)c3)CC2C)cc1 (mixture of isomers) [Compound I-44]
Fold Induction Average, AA_3T3V1 Assay 33 μM: 26 fold

COc1cccc(NC2CC(C)N(C(=O)c3ccc(C)cc3)c3ccccc32)c1 (mixture of isomers) [Compound I-46]
Fold Induction Average, AA_3T3V1 Assay 33 μM: 8 fold

Cc1ccc(C(=O)N2c3cc(Cl)ccc3C(Nc3ccc(F)cc3)CC2C)cc1F (mixture of isomers) [Compound I-48]
Fold Induction Average, AA_3T3V1 Assay 33 μM: 19 fold

CCCCCCCC(=O)N1c2ccccc2[C@@H](Nc2ccccc2)C[C@@H]1C (relative stereo) [Compound I-2]
Fold Induction Average, AA_3T3V1 Assay 33 μM: 49 fold

CCCCC(=O)N1c2ccccc2[C@@H](Nc2ccccc2)C[C@@H]1C (relative stereo) [Compound I-3]
Fold Induction Average, AA_3T3V1 Assay 33 μM: 252 fold

C[C@H]1C[C@@H](Nc2ccccc2)c2ccccc2N1C(=O)c1ccc(F)c(F)c1 (relative stereo) [Compound I-18]
Fold Induction Average, AA_3T3V1 Assay 33 μM: 83 fold

C[C@H]1C[C@@H](Nc2ccccc2)c2ccccc2N1C(=O)c1ccc(C(F)(F)F)c(F)c1 (relative stereo) [Compound I-20]
Fold Induction Average, AA_3T3V1 Assay 33 μM: 47 fold

C[C@H]1C[C@@H](Nc2ccccc2)c2ccccc2N1C(=O)c1ccc(Cl)cc1 (relative stereo) [Compound I-29]
Fold Induction Average, AA_3T3V1 Assay 33 μM: 61 fold

COC(=O)c1ccc(C(=O)N2c3ccccc3[C@H](Nc3ccccc3)C[C@@H]2C)cc1 (relative stereo) [Compound I-30]
Fold Induction Average, AA_3T3V1 Assay 33 μM: 9 fold

CCCCCCCCC(=O)N1c2ccccc2[C@@H](Nc2ccccc2)C[C@@H]1C (relative stereo) [Compound I-127]
Fold Induction Average, AA_3T3V1 Assay 33 μM: 22 fold

Cc1ccc(NC(=O)N2c3ccccc3[C@@H](Nc3ccccc3)C[C@H]2C)cc1 (relative stereo) [Compound I-214, cis-2-methyl-1-(4-methylphenylaminocarbonyl)-4-(4-phenylamino)-1,2,3,4-tetrahydroquinoline]
fold induction at 33 µM (NIH3T3, read-out: Fold Induction Average, AA_3T3V1 Assay 33 μM): 820

Cc1ccc(N[C@H]2C[C@H](C)N(C(=O)Nc3cccc(Cl)c3)c3ccc(C)cc32)cc1 (relative stereo) [Compound I-218]
Fold Induction Average, AA_3T3V1 Assay 33 μM: 6 fold

Cc1ccc(NC(=O)N2c3ccc(C)cc3[C@@H](Nc3ccc(C)cc3)C[C@@H]2C)cc1 (relative stereo) [Compound I-219]
Fold Induction Average, AA_3T3V1 Assay 33 μM: 3 fold

C[C@H]1C[C@H](Nc2ccc(F)cc2)c2cc(F)ccc2N1C(=O)Nc1ccccc1 (relative stereo) [Compound I-221]
Fold Induction Average, AA_3T3V1 Assay 33 μM: 1027 fold

C[C@H]1C[C@H](Nc2ccc(F)cc2)c2cc(F)ccc2N1C(=O)Nc1ccc(Cl)cc1 (relative stereo) [Compound I-222]
Fold Induction Average, AA_3T3V1 Assay 33 μM: 939 fold

C[C@H]1C[C@H](Nc2ccc(F)cc2)c2cc(F)ccc2N1C(=O)Nc1cccc(Cl)c1 (relative stereo) [Compound I-223]
Fold Induction Average, AA_3T3V1 Assay 33 μM: 1414 fold

Cc1ccc(NC(=O)N2c3ccc(F)cc3[C@@H](Nc3ccc(F)cc3)C[C@@H]2C)cc1 (relative stereo) [Compound I-224]
Fold Induction Average, AA_3T3V1 Assay 33 μM: 1245 fold

Cc1cccc(NC(=O)N2c3ccc(F)cc3[C@@H](Nc3ccc(F)cc3)C[C@@H]2C)c1 (relative stereo) [Compound I-225]
Fold Induction Average, AA_3T3V1 Assay 33 μM: 1561 fold

Cc1ccc(NC2CC(C)N(C(=O)c3ccc(Cl)cc3)c3ccc(C)cc32)cc1 (stereo not drawn) [Compound I-32]
Fold Induction Average, AA_3T3V1 Assay 33 μM: 1 fold

Cc1ccc(NC2CC(C)N(C(=O)c3ccc(C(F)(F)F)c(F)c3)c3ccc(C)cc32)cc1 (stereo not drawn) [Compound I-49]
Fold Induction Average, AA_3T3V1 Assay 33 μM: 3 fold

Cc1ccc(NC2CC(C)N(C(=O)c3ccccc3F)c3ccc(C)cc32)cc1 (stereo not drawn) [Compound I-51]
Fold Induction Average, AA_3T3V1 Assay 33 μM: 4 fold

Cc1ccc(NC2CC(C)N(C(=O)c3ccccc3C)c3ccc(C)cc32)cc1 (stereo not drawn) [Compound I-52]
Fold Induction Average, AA_3T3V1 Assay 33 μM: 19 fold

CCc1ccc(C(=O)N2c3ccccc3C(Nc3ccccc3)CC2C)cc1 (stereo not drawn) [Compound I-59]
Fold Induction Average, AA_3T3V1 Assay 33 μM: 4 fold

Cc1ccc(NC2CC(C)N(C(=O)c3ccc(C)cc3)c3ccc(C)cc32)cc1 (stereo not drawn) [Compound I-99]
Fold Induction Average, AA_3T3V1 Assay 33 μM: 2 fold

Cc1ccc(NC2CC(C)N(C(=O)c3ccccc3)c3ccc(C)cc32)cc1 (stereo not drawn) [Compound I-100]
Fold Induction Average, AA_3T3V1 Assay 33 μM: 2 fold

CCc1c(OC)cccc1C(=O)N1c2ccc(C)cc2C(Nc2ccc(C)cc2)CC1C (stereo not drawn) [Compound I-112]
Fold Induction Average, AA_3T3V1 Assay 33 μM: 194 fold

CC1CC(Nc2ccc(F)cc2)c2cc(F)ccc2N1C(=O)c1ccno1 (stereo not drawn) [Compound I-114]
Fold Induction Average, AA_3T3V1 Assay 33 μM: 1421 fold

CC1CC(Nc2ccc(F)cc2)c2cc(F)ccc2N1C(=O)c1ccc(Cl)c(F)c1 (stereo not drawn) [Compound I-115]
Fold Induction Average, AA_3T3V1 Assay 33 μM: 643 fold

CC1CC(Nc2ccc(F)cc2)c2cc(F)ccc2N1C(=O)c1ccnc(Cl)c1 (stereo not drawn) [Compound I-116]
Fold Induction Average, AA_3T3V1 Assay 33 μM: 1100 fold

CCc1c(OC)cccc1C(=O)N1c2ccc(F)cc2C(Nc2ccc(F)cc2)CC1C (stereo not drawn) [Compound I-117]
Fold Induction Average, AA_3T3V1 Assay 33 μM: 1256 fold

CC1CC(Nc2ccccc2)c2ccccc2N1C(=O)C=Cc1ccco1 (stereo not drawn) [Compound I-121]
Fold Induction Average, AA_3T3V1 Assay 33 μM: 81 fold

CC1CC(Nc2ccccc2)c2ccccc2N1C(=O)c1cccs1 (stereo not drawn) [Compound I-122]
Fold Induction Average, AA_3T3V1 Assay 33 μM: 5 fold

CC(=O)N(c1ccccc1)C1CC(C)N(C(=O)c2ccc(C(C)(C)C)cc2)c2ccccc21 (stereo not drawn) [Compound I-123]
Fold Induction Average, AA_3T3V1 Assay 33 μM: 1 fold

CC(=O)N1c2ccccc2C(N(C(=O)c2ccc(F)cc2)c2ccccc2)CC1C (stereo not drawn) [Compound I-128]
Fold Induction Average, AA_3T3V1 Assay 33 μM: 1 fold

CC1CC(Nc2ccccc2)c2ccccc2N1C(=O)COc1ccccc1Cl (stereo not drawn) [Compound I-129]
Fold Induction Average, AA_3T3V1 Assay 33 μM: 1 fold

CC1CC(Nc2ccccc2)c2ccccc2N1C(=O)Cc1ccccc1 (stereo not drawn) [Compound I-130]
Fold Induction Average, AA_3T3V1 Assay 33 μM: 1 fold

CC(=O)N1c2ccccc2C(N(C(=O)c2ccc(C)cc2)c2ccccc2)CC1C (stereo not drawn) [Compound I-132]
Fold Induction Average, AA_3T3V1 Assay 33 μM: 1 fold

CCCCCC(=O)N(c1ccccc1)C1CC(C)N(C(=O)c2cccc(OC)c2)c2ccccc21 (stereo not drawn) [Compound I-133]
Fold Induction Average, AA_3T3V1 Assay 33 μM: 1 fold

CC1CC(N(C(=O)c2cccc(F)c2)c2ccccc2)c2ccccc2N1C(=O)c1cccc(F)c1 (stereo not drawn) [Compound I-136]
Fold Induction Average, AA_3T3V1 Assay 33 μM: 1 fold

CC1CC(Nc2ccccc2)c2ccccc2N1C(=O)c1ccco1 (stereo not drawn) [Compound I-139]
Fold Induction Average, AA_3T3V1 Assay 33 μM: 1 fold

CCOC(=O)C(=O)N1c2ccccc2C(N(C(=O)C(=O)OCC)c2ccccc2)CC1C (stereo not drawn) [Compound I-145]
Fold Induction Average, AA_3T3V1 Assay 33 μM: 47 fold

COc1ccc(C=CC(=O)N2c3ccccc3C(N(C(C)=O)c3ccccc3)CC2C)cc1 (stereo not drawn) [Compound I-150]
Fold Induction Average, AA_3T3V1 Assay 33 μM: 1 fold

COc1ccc(C(=O)N2c3ccccc3C(N(C(=O)c3ccc(OC)cc3)c3ccccc3)CC2C)cc1 (stereo not drawn) [Compound I-153]
Fold Induction Average, AA_3T3V1 Assay 33 μM: 1 fold

CCCc1ccc(C(=O)N2c3c(C)cccc3C(Nc3ccccc3C)CC2C)cc1 (stereo not drawn) [Compound I-157]
Fold Induction Average, AA_3T3V1 Assay 33 μM: 1 fold

Cc1cccc(C(=O)N2c3ccccc3C(N(C(=O)c3cccc(C)c3)c3ccccc3)CC2C)c1 (stereo not drawn) [Compound I-164]
Fold Induction Average, AA_3T3V1 Assay 33 μM: 1 fold
